Experimental data reported in ChEMBL document CHEMBL4033793, “Potent and Selective Inhibitors of Human Sirtuin 5” (J Med Chem, 2018).
pIC50: −log10 of the molar value. Starred links: 1 amine or outer side, 2 acyl side, 3 side chain; linkers in the order of their positions; H or OH if unused. Positions of bridges follow the written chain, without caps; N, C: chain ends. Non-standard residues stand in square brackets, D forms with d. Residues, ends and D or L forms follow the SMILES beside them. X67 = O=C(O)CCNC(=S)NCCCC[C@H](N[*:1])C(=O)[*:2]; Suberoyl = O=C(CCCCCCC(=O)[*:2])[*:1]; β3hR = N=C(N)NCCC[C@H](N)CC(=O)O

Legend:
[1] = molecular target: T1, NAD-dependent protein deacylase sirtuin-5, mitochondrial (Homo sapiens, UniProt Q9NXA8); experiment: Inhibition of recombinant human N-terminal His-tagged SIRT5 (34 to 269 residues) expressed in Escherichia coli Transetta(DE3) cells using Benzyl Lys(Succinyl)-AMC substrate after 2 hrs by fluorescence assay
[2] = molecular target: T1, NAD-dependent protein deacylase sirtuin-5, mitochondrial; experiment: Inhibition of human SIRT5
[3] = molecular target: T1, NAD-dependent protein deacylase sirtuin-5, mitochondrial; experiment: Inhibition of human recombinant N-terminal Strep2-tagged SIRT5 expressed in Escherichia coli BL21 (DE3) using Abz-GVLK(glutaryl)AY(NO2)GV-NH2 as substrate in presence of NAD+ by fluorescence assay
[4] = molecular target: T1, NAD-dependent protein deacylase sirtuin-5, mitochondrial; experiment: Inhibition of SIRT5 (unknown origin) using GGQSLK[succ]FGKG as substrate after 30 mins

T1 sequence (Q9NXA8 whole entry, the tested form may be a part): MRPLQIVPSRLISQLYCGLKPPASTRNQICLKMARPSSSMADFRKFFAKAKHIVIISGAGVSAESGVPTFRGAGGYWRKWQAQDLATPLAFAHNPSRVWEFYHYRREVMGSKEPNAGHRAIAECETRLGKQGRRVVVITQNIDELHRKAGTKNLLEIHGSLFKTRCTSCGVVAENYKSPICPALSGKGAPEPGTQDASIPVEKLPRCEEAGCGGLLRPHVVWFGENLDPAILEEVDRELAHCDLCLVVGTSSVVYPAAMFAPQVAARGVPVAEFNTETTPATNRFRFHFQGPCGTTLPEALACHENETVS

SMILES: N#C/C(=C\c1ccc(-c2ccc(C(=O)O)cc2)o1)C(=O)Nc1ccc(C#N)c(F)c1
- pIC50 [1]: 5.25

SMILES: CC(=O)N[C@H]1CCCCNC(=O)CCCCCCC(=O)NCCCC[C@@H](C(=O)N[C@H](C(N)=O)[C@@H](C)O)NC(=O)[C@H](CCCCNC(=S)NCCC(=O)O)NC(=O)C[C@H](CCCNC(=N)N)NC1=O (Ac-K[β3hR][X67]KT-NH2; linker 1-4 via Suberoyl)
- pIC50 [2]: 5.12

SMILES: O=C1c2c(O)cccc2Cc2cccc(O)c21 [ANTHRALIN]
- pIC50 [3]: 3.34
- pIC50 [4]: 7.00
